Laboratory results published in patent publication US12616704B2, “Cannabichromene formulation for pain management” (Zyus Life Sciences Inc., priority 2020, dated 2026).

Assays:
[1] = Body weight monitoring in SNL study; type: in vivo, Sprague-Dawley rats; details: SNL rats; CBC 10 mg/kg, pregabalin 50 mg/kg; two-way ANOVA, Tukey's
Procedure: Body Weight Monitoring. The body weight of the animals was recorded at baseline evF testing, on the day of surgery (DO), and daily thereafter.

SNL model effect = test: Data mining (cPCA) of kinematic gait data: SNL model (analgesic) and sedation effect scores; type: in vivo, rats
Procedure: Data mining was successfully performed to extend the multivariate kinematic data analysis and capture the analgesic effect of cannabichromene (CBC) on quantitative measurement of parameters attributed to the temporal aspects of motion to evaluate temporal aspects of motion, such as positions, angles, velocities, and accelerations of body segments and joints during motion.
Overall, 97 gait parameters were analyzed, and each parameter was averaged within each treatment group. A statistical method using Contrastive Principal Component Analysis (cPCA) was employed (Abid et al., 2018). The method of cPCA was designed to identify different combinations of original variables linked to the Spinal Nerve Ligation (SNL) model effect (pain) and learning effect. An orthogonalization procedure was then performed to create the obtained effects independent of learning and possible sedation. After the contrastive principal components (cPCs) (Model, Sedative) were established, the corresponding cPC scores were computed for each observation. The obtained cPC scores were further analyzed by using mixed two-way ANOVA followed by Dunnett's test of the estimated marginal means. The cPCA based analysis framework was implemented using R environment (R version 3.6.3). Statistical analysis was performed using Ime4 (Bates et al., 2015) and emmeans (R package version 1.4.5.) packages. The results of these comparisons were obtained by using all the previously identified components: model effect, learning effect and model orthogonal to learning.

[2] = tested on: SNL-induced motor phenotype; test: Fine motor kinematic gait analysis (MotoRater) in SNL model; type: in vivo, Sprague-Dawley rats; details: for Knee ROM Deviation [degree]: Stats: vehicle vs. treatment group; for Overall kinematic gait score, Vehicle vs. treatment: Summary / Overall kinematic gait score, Vehicle vs. treatment: Predicted (LS) mean diff.: between groups; for Overall kinematic gait score, Vehicle vs. treatment: Predicted (LS) mean diff. / Overall kinematic gait score, D7 vs. D8 5 h: Predicted (LS) mean diff. / Overall kinematic gait score, D7 vs. D8 9 h: Predicted (LS) mean diff. / Overall kinematic gait score, D7 vs. D9: Predicted (LS) mean diff. / Overall kinematic gait score, D7 vs. Baseline: Predicted (LS) mean diff.: z-score; for Ankle Angle, Max [degree]: Stats: vehicle vs. treatment, pregabalin 50 mg/kg; for Overall kinematic gait score, D7 vs. D8 5 h: Summary / Overall kinematic gait score, D7 vs. D8 9 h: Summary / Overall kinematic gait score, D7 vs. D9: Summary / Overall kinematic gait score, D7 vs. Baseline: Summary / Overall kinematic gait score, D7 vs. D8 5 h: Predicted (LS) mean diff. / Overall kinematic gait score, D7 vs. D8 9 h: Predicted (LS) mean diff. / Overall kinematic gait score, D7 vs. D9: Predicted (LS) mean diff. / Overall kinematic gait score, D7 vs. Baseline: Predicted (LS) mean diff.: within group; for Overall kinematic gait score, D7 vs. Baseline: Summary / Overall kinematic gait score, D7 vs. Baseline: Predicted (LS) mean diff.: before dosing; for overall gait score, CBC compared to pregabalin: p: CBC 10 mg/kg vs. pregabalin 50 mg/kg
Procedure: The treatment groups received the following test article mixtures: • Group 1: treated with vehicle (0.9% saline) • Group 2: treated with Pregabalin (50 mg/kg) • Group 3: treated with CBC (10 mg/kg)
Administration of Treatments. CBC (cannabichromene) formulation, the vehicle, or pregabalin treatment was administered according to Table 1 on study day 8 to all study animals, and on study day 10 to 6 animals per group. The dousing route of CBC or the vehicle were intragastric (p.o.), while pregabalin was administered intraperitoneally (i.p.). In addition to D8, pregabalin was administered on D9, at 2 h prior to the evf test. All animals of the pregabalin group were euthanized on D9, following the last test trial. The CBC was dissolved and diluted to one of the following vehicles:
Fine Motor Kinematic Gait Analysis. The subjected to gait analysis at the baseline and on study days 8, 9, 11, 14 and 17, at a minimum of 30 min after the evF test. The assay was carried out by MotoRater (TSE Systems, Homburg, Germany), with the walking mode. Prior to commencing the test, the essential body points (e.g. joints, limbs, nose, tail) were marked for tracking. The information of the gait performance was captured using a high speed camera (300 frames/second) from below and both sides. Next, the captured videos are converted to custom software. The raw data was obtained by tracking the marked points of the body from the videos recorded from all 3 dimensions. The raw data thus comprise correlation of the movements of different body points in coordinates related to the ground and each three dimensions.
Different gait patterns and movements were analyzed using a custom made automated analysis system. Information about altogether over a hundred kinematic parameters were attained. These comprised e.g:
All MotoRater data were analyzed for the distinct parameters, as well as for all combined parameters, using principal component analysis (PCA). The obtained results produce the model phenotype in gait analysis i.e. the difference between vehicle and cannabinoid treated animals regarding both individual parameters and PCA.
In addition to the baseline test, the motorater test was performed altogether four times over the course of behavioral study phase: • on D7, to assess the model-specific motor defects prior to dosing, • on D8, after finishing the 4-h evF, • on D8, after finishing the 8-h evF, and • on D9, after finishing the 24-h evF.
The kinematic assay was not performed to the animals before a minimum of 30 min after evF test.

[3] = Welfare observations in OIPN study; type: in vivo, C57BL/6J mice; details: CBC 20 mg/kg p.o., OIPN mice
Source text: Seven mice were disqualified from further study due to showing too mild cool allodynia.

[4] = BL (before dosing), vehicle vs. pregabalin group
[5] = Baseline (before SNL and dosing)
[6] = D 7 (pre-dosing), vehicle vs. pregabalin group
[7] = D8 5 h, CBC 10 mg/kg p.o., pregabalin 50 mg/kg i.p.
[8] = D8 9 h, CBC 10 mg/kg p.o., pregabalin 50 mg/kg i.p.
[9] = D9, CBC 10 mg/kg p.o., pregabalin 50 mg/kg i.p.
[10] = CBC 10 mg/kg p.o., pregabalin 50 mg/kg i.p.
[11] = BL (before dosing), vehicle vs. CBC 10 mg/kg group
[12] = D 8 5 h, vehicle vs. CBC 10 mg/kg
[13] = Table 8, BL (before dosing), vehicle vs. CBC 10 mg/kg group
[14] = Table 8, D 8 5 h, vehicle vs. CBC 10 mg/kg

CC(C)C[C@H](CN)CC(=O)O [Pregabalin, pregabalin, reference compound]
body weight vs. vehicle over the course of the study [1]: not significantly different
analgesic or sedative effect in fine motor kinematic performance (SNL model effect; pregabalin 50 mg/kg): no analgesic or sedative effect
Duty Cycle [%]: Stats [2, 4]: 2.77
Duty Cycle, Fore [%]: Stats [2, 4]: 3.26
Mean Hip Jerk [m/s3]: Adjusted p-value [2, 4]: 0.001
Mean Hip Jerk [m/s3]: Adjusted p-value Sig? [2, 4]: *** (*** p≤0.001)
Mean Hip Jerk [m/s3]: Stats [2, 4]: −3.75
Mean Hip Jerk [m/s3]: p-value [2, 4]: 0.001
Knee ROM Deviation [degree]: Stats ([2]; BL (before dosing)): 3.23
Overall kinematic gait score, Vehicle vs. treatment: Summary [2, 5]: * (p<0.05, significant)
Overall kinematic gait score, Vehicle vs. treatment: Predicted (LS) mean diff. [2, 5]: −2.013
Overall kinematic gait score, Vehicle vs. treatment: Summary ([2]; D7 (pre-dosing)): ns
Paw Trajectory Shape 25%, Hind [%]: Stats [2, 6]: −3.01
Relative Trajectory Length, Fore: Stats [2, 6]: −3.26
Overall kinematic gait score, Vehicle vs. treatment: Predicted (LS) mean diff. ([2]; D7 (pre-dosing)): −0.5896
Overall kinematic gait score, Vehicle vs. treatment: Summary [2, 7]: ns
Ankle Angle, Min [degree]: Stats ([2]; D 8 5 h, vehicle vs. pregabalin 50 mg/kg): −2.99
Ankle Angle, Max [degree]: Stats ([2]; D 8 5 h, CBC 10 mg/kg): −3.74
Overall kinematic gait score, Vehicle vs. treatment: Predicted (LS) mean diff. [2, 7]: −0.2262
Overall kinematic gait score, Vehicle vs. treatment: Summary [2, 8]: ns
Hip ROM [degree]: Stats ([2]; D 8 9 h, vehicle vs. pregabalin 50 mg/kg): 2.85
Overall kinematic gait score, Vehicle vs. treatment: Predicted (LS) mean diff. [2, 8]: −0.8408
Overall kinematic gait score, Vehicle vs. treatment: Summary [2, 9]: ns
Overall kinematic gait score, Vehicle vs. treatment: Predicted (LS) mean diff. [2, 9]: −0.8531
Overall kinematic gait score, D7 vs. D8 5 h: Summary [2, 10]: ns
Overall kinematic gait score, D7 vs. D8 9 h: Summary [2, 10]: ** (p<0.01, very significant)
Overall kinematic gait score, D7 vs. D9: Summary [2, 10]: ns
Overall kinematic gait score, D7 vs. Baseline: Summary [2]: ** (p<0.01, very significant)
Overall kinematic gait score, D7 vs. D8 5 h: Predicted (LS) mean diff. [2, 10]: −1.135
Overall kinematic gait score, D7 vs. D8 9 h: Predicted (LS) mean diff. [2, 10]: −2.27
Overall kinematic gait score, D7 vs. D9: Predicted (LS) mean diff. [2, 10]: −1.271
Overall kinematic gait score, D7 vs. Baseline: Predicted (LS) mean diff. [2]: 1.964

CCCCCc1cc(O)c2c(c1)OC(C)(CCC=C(C)C)C=C2 (centres unmarked) [CBC, cannabichromene]
adverse effects [3]: no hyper-reactivity or psychoactive adverse effects
body weight vs. vehicle over the course of the study [1]: not significantly different
SNL model effect score (analgesic effect) (SNL model effect; 9 hours post-dosing, single dose CBC 10 mg/kg p.o.): No significant analgesic effect
SNL model score (analgesic effect) compared to vehicle group: p (SNL model effect; D8 5 h post-dosing, single dose CBC 10 mg/kg p.o.): < 0.05
independent sedation effect score (SNL model effect; D8, 5 h and D8, 9 h post-dosing, CBC 10 mg/kg, CBD:THC 10:10 mg/kg): did not exert any sedative effect
overall gait score, CBC compared to pregabalin: p ([2]; 5 h PD): 0.07693
overall gait score, CBC compared to pregabalin: p ([2]; 9 h PD): 0.04717
Ankle ROM Deviation [degree]: Stats [2, 11]: 2.98
Homolateral Interlimb coordination: Stats [2, 11]: 2.84
Swing Speed Metric, Hind: Stats [2, 11]: −3.67
Knee ROM Deviation [degree]: Stats ([2]; BL (before dosing)): 2.88
Overall kinematic gait score, Vehicle vs. treatment: Summary [2, 5]: ns
Overall kinematic gait score, Vehicle vs. treatment: Predicted (LS) mean diff. [2, 5]: −1
overall Gait score compared to Vehicle ([2]; CBC 10 mg/kg): did not show a significant reduction in overall Gait score compared to Vehicle
overall gait score, within group comparisons over time ([2]; CBC 10 mg/kg): did not identify a significant time-bound overall gait score difference
Overall kinematic gait score, Vehicle vs. treatment: Summary ([2]; D7 (pre-dosing)): ns
Overall kinematic gait score, Vehicle vs. treatment: Predicted (LS) mean diff. ([2]; D7 (pre-dosing)): 0.1511
Overall kinematic gait score, Vehicle vs. treatment: Summary [2, 7]: ns
Hip Angle, Max [degree]: Stats [2, 12]: 4.29
Knee Angle, Min [degree]: Stats [2, 12]: 3.78
Mean Hip Jerk [m/s3]: Adjusted p-value [2, 12]: 0.01
Mean Hip Jerk [m/s3]: Adjusted p-value Sig? [2, 12]: ** (** p≤0.01)
Mean Hip Jerk [m/s3]: Stats [2, 12]: −3.04
Mean Hip Jerk [m/s3]: p-value [2, 12]: 0.01
Protraction, Hind [m]: Stats [2, 12]: −4.42
Retraction, Hind [m]: Stats [2, 12]: 4.26
Step Width, Fore [mm]: Stats [2, 12]: −2.86
Ankle Angle, Max [degree]: Stats ([2]; D 8 5 h, CBC 10 mg/kg): −2.85
Overall kinematic gait score, Vehicle vs. treatment: Predicted (LS) mean diff. [2, 7]: 1.116
Overall kinematic gait score, Vehicle vs. treatment: Summary [2, 8]: ns
Overall kinematic gait score, Vehicle vs. treatment: Predicted (LS) mean diff. [2, 8]: 0.654
Overall kinematic gait score, Vehicle vs. treatment: Summary [2, 9]: ns
Overall kinematic gait score, Vehicle vs. treatment: Predicted (LS) mean diff. [2, 9]: −0.4602
Homolateral Interlimb coordination, CBC vs. Vehicle: p ([2]; D9 post-dosing, CBC 10 mg/kg): 0.03
Ankle ROM: Significance [2, 13]: * (p<0.05, significant)
Ankle ROM: Statistic [2, 13]: 2.98
Homolateral: Significance [2, 13]: * (p<0.05, significant)
Homolateral: Statistic [2, 13]: 2.84
Knee ROM: Significance [2, 13]: * (p<0.05, significant)
Knee ROM: Statistic [2, 13]: 2.88
Swing Speed: Significance [2, 13]: ** (p<0.01, very significant)
Swing Speed: Statistic [2, 13]: −3.67
Ankle Angle. Max: Significance [2, 14]: * (p<0.05, significant)
Ankle Angle. Max: Statistic [2, 14]: −2.85
Hip Angle. Max: Significance [2, 14]: *** (p<0.001, extremely/highly significant)
Hip Angle. Max: Statistic [2, 14]: 4.29
Knee Angle. Min: Significance [2, 14]: ** (p<0.01, very significant)
Knee Angle. Min: Statistic [2, 14]: 3.78
Mean Hip Jerk: Significance [2, 14]: * (p<0.05, significant)
Mean Hip Jerk: Statistic [2, 14]: −3.04
Mean Hip Jerk: p-value [2, 14]: 0.00953
Protraction. Hind: Significance [2, 14]: *** (p<0.001, extremely/highly significant)
Protraction. Hind: Statistic [2, 14]: −4.42
Retraction. Hind: Significance [2, 14]: *** (p<0.001, extremely/highly significant)
Retraction. Hind: Statistic [2, 14]: 4.26
Step Width. Fore: Significance [2, 14]: * (p<0.05, significant)
Step Width. Fore: Statistic [2, 14]: −2.86
Support Metric gait variables compared to Vehicle ([2]; baseline to D9, CBC 10 mg/kg): No statistical significance was observed
Overall kinematic gait score, D7 vs. D8 5 h: Summary [2, 10]: ns
Overall kinematic gait score, D7 vs. D8 9 h: Summary [2, 10]: ns
Overall kinematic gait score, D7 vs. D9: Summary [2, 10]: ns
Overall kinematic gait score, D7 vs. Baseline: Summary [2]: ** (p<0.01, very significant)
Overall kinematic gait score, D7 vs. D8 5 h: Predicted (LS) mean diff. [2, 10]: −0.5337
Overall kinematic gait score, D7 vs. D8 9 h: Predicted (LS) mean diff. [2, 10]: −1.516
Overall kinematic gait score, D7 vs. D9: Predicted (LS) mean diff. [2, 10]: −1.619
Overall kinematic gait score, D7 vs. Baseline: Predicted (LS) mean diff. [2]: 2.236
